# Measurements published in US4835152A, “1-(4-Aminophenyl)-4-methyl-7,8-methylenedioxy-3,4-dihydro-5H-2,3-b enzodiazepine and acid addition salts thereof same” (Biogal Gyogyszergyar, priority 1986, dated 1989).
# What was measured:
# [1] = Examination of stereotypy in rats (method of Costall and Naylor); type: in vivo; parameters: Stereotypy, average score: scale not given here; details: for Stereotypy (in words): rats
# Source text: 3. Examination of stereotypy in rats
# For the measurement of stereotypy the method of B. Costall and R. I. Naylor [Eur. J. Pharmacol. 18, 95 (1972)] was used. The score values in Table 4 are average score values obtained at the time of reading.
# [2] = Motility studies on mice (spontaneous motor activity, two-hour experiment); type: in vivo, male mice; details: for Increase in motility: 2 h
# Protocol: 1.a. Motility studies on mice
# For studying how the compound prepared according to Example 1 increases the motility in male mice, two-hour experiments were carried out. In order to determine the spontaneous motor activity, the component of hunger-activitywas excluded (the mice were not fasted), thus only the exploratory activity was recorded. The test animals were placed into the observation box immediately after the intraperitoneal treatment.
# Acute toxicity in rats = details: rat, in vivo
# Source text: (§1) The acute toxicity values (LD50) of the compound of Example 1: […]
# Emetic side-effect = details: in vivo
# [3] = Dependence studies, DAF (drug admixed food) method; details: 0.05% (w/w) in food, 6 weeks, average daily dose 40 mg/kg, two weeks after withdrawal, listed as compound of the invention
# Acute toxicity in mice = details: mouse, in vivo
# Source text: as §1
# [4] = system: oxotremorine-induced tremor; assay: Inhibition of oxotremorine-induced tremor in mice (method of Rathbun and Slater); type: in vivo, male CFLP mice; details: for Inhibition in relation to control group: oxotremorine 1 mg/kg i.p. 1 h later
# Protocol: (§2) 4. Inhibition of oxotremorine in mice
# (§3) The examinations were carried out according to the method of R. C. Rathbun and I. H. Slater [Psychopharm. 4, 114 (1963)]. One hour after male, starving CFLP mice were orally pre-treated with a dose of 6.25, 12.5 or 25.0 mg/kg of the compound of Example 1, they were intraperitoneally treated with a dose of 1 mg/kg of 1-[4-(1-pyrrolidinyl)-2-butinyl]-2-pyrrolidinone (oxotremorine).
# (§4) The inhibition of oxotremorine-induced tremor and salivation exerted by the compound of Example 1 was measured in relation to the control group treated with oxotremorine only. The strength of the inhibition was expressed in scores (0, 0.5, 1, 2 or 3).
# [5] = Motility studies on rats (2 hours); type: in vivo, male CFY rats; details: for Increase in motility: 2 h
# Protocol: 1.b. Motility studies on rats
# Male CFY rats weighing 120 to 140 g were treated intraperitoneally in groups of three with a dose of 10, 20, 25 or 30 mg/kg of the compound of Example 1, and were immediately placed into the observation box. The experiment lasted for 2 hours.
# [6] = system: oxotremorine-induced salivation; assay: Inhibition of oxotremorine-induced salivation in mice; type: in vivo, male CFLP mice; details: 6.25-25.0 mg/kg p.o.
# Protocol: as §2, §3, §4
# [7] = system: haloperidol-induced decrease in SMA; assay: Measurement of the haloperidol-antagonistic effect in mice (spontaneous motor activity, SMA); type: in vivo, male CFLP mice
# Protocol: 2. Measurement of the haloperidol-antagonistic effect in mice
# Male CFLP mice weighing 20 to 22 g were treated intraperitoneally with a dose of 0.5 mg/kg of 4-[4-(4-chlorophenyl)-4-hydroxy-1-piperidinyl]-1-(4-fluorophenyl)-1-butanone (haloperidol) and the spontaneous motor activity (SMA) was measured, in relation to the data obtained in the controls, by a capacitance-sensitive motimeter. Another group of the test animals was treated also with a dose of 30 mg/kg of the compound of Example 1, 15 minutes after the administration of haloperidol.
smiles,measurement,setting,value
"CC(C)C[C@H]1C(=O)N2CCC[C@H]2[C@]2(O)O[C@](NC(=O)[C@@H]3C=C4c5cccc6[nH]c(Br)c(c56)C[C@H]4N(C)C3)(C(C)C)C(=O)N12 [Bromocriptine, reference compound]","Stereotypy, average score","[1]; 5 mg/kg i.p., 30 min",0.2
same,"Stereotypy, average score","[1]; 5 mg/kg i.p., 60 min",0.6
same,"Stereotypy, average score","[1]; 5 mg/kg i.p., 120 min",0.8
same,"Stereotypy, average score","[1]; 5 mg/kg i.p., 180 min",1.1
same,"Stereotypy, average score","[1]; 5 mg/kg i.p., 240 min",0.4
same,"Stereotypy, average score","[1]; 10 mg/kg i.p., 30 min",0.5
same,"Stereotypy, average score","[1]; 10 mg/kg i.p., 60 min",1.0
same,"Stereotypy, average score","[1]; 10 mg/kg i.p., 120 min",1.8
same,"Stereotypy, average score","[1]; 10 mg/kg i.p., 180 min",1.9
same,"Stereotypy, average score","[1]; 10 mg/kg i.p., 240 min",1.5
same,"Stereotypy, average score","[1]; 20 mg/kg i.p., 30 min",0.6
same,"Stereotypy, average score","[1]; 20 mg/kg i.p., 60 min",1.2
same,"Stereotypy, average score","[1]; 20 mg/kg i.p., 120 min",2.2
same,"Stereotypy, average score","[1]; 20 mg/kg i.p., 180 min",2.4
same,"Stereotypy, average score","[1]; 20 mg/kg i.p., 240 min",1.8
same,Stereotypy (in words),[1],causes stereotypy
"CC1Cc2cc3c(cc2C(c2ccc(N)cc2)=NN1)OCO3 (centres unmarked) [Example 1, 1-(4-aminophenyl)-4-methyl-7,8-methylenedioxy-3,4-dihydro-5H-2,3-benzodiazepine]",Increase in motility,[2]; 3 mg/kg i.p.,15%
same,Increase in motility,[2]; 10 mg/kg i.p.,131%
same,Increase in motility,[2]; 30 mg/kg i.p.,473%
same,Effect on motility or spontaneous motor activity (in words),[2]; i.p.,increases the motility or spontaneous motor activity of mice and rats in a dose-dependent manner
same,LD50,Acute toxicity in rats; ip,250 mg/kg
same,LD50,Acute toxicity in rats; po,350 mg/kg
same,Emetic side-effect,Emetic side-effect,"does not have the unfavourable side-effects of the known psychostimulants (emetic effect, proneness to dependence)"
same,Withdrawal symptoms or signs of dependence,[3],"does not have the unfavourable side-effects of the known psychostimulants (emetic effect, proneness to dependence)"
same,LD50,Acute toxicity in mice; ip,260 mg/kg
same,LD50,Acute toxicity in mice; po,300 mg/kg
same,"Stereotypy, average score","[1]; 3.125 mg/kg i.p., 15 min",0.3
same,"Stereotypy, average score","[1]; 3.125 mg/kg i.p., 30 min",0.3
same,"Stereotypy, average score","[1]; 3.125 mg/kg i.p., 60 min",0.1
same,"Stereotypy, average score","[1]; 3.125 mg/kg i.p., 90 min",0
same,"Stereotypy, average score","[1]; 3.125 mg/kg i.p., 120 min",0
same,"Stereotypy, average score","[1]; 3.125 mg/kg i.p., 180 min",0
same,"Stereotypy, average score","[1]; 3.125 mg/kg i.p., 240 min",0
same,"Stereotypy, average score","[1]; 6.25 mg/kg i.p., 15 min",1.0
same,"Stereotypy, average score","[1]; 6.25 mg/kg i.p., 30 min",1.3
same,"Stereotypy, average score","[1]; 6.25 mg/kg i.p., 60 min",0.3
same,"Stereotypy, average score","[1]; 6.25 mg/kg i.p., 90 min",0
same,"Stereotypy, average score","[1]; 6.25 mg/kg i.p., 120 min",0
same,"Stereotypy, average score","[1]; 6.25 mg/kg i.p., 180 min",0
same,"Stereotypy, average score","[1]; 6.25 mg/kg i.p., 240 min",0
same,"Stereotypy, average score","[1]; 6.25 mg/kg p.o., 15 min",0.7
same,"Stereotypy, average score","[1]; 6.25 mg/kg p.o., 30 min",0.7
same,"Stereotypy, average score","[1]; 6.25 mg/kg p.o., 60 min",0.6
same,"Stereotypy, average score","[1]; 6.25 mg/kg p.o., 90 min",0
same,"Stereotypy, average score","[1]; 6.25 mg/kg p.o., 120 min",0
same,"Stereotypy, average score","[1]; 6.25 mg/kg p.o., 180 min",0
same,"Stereotypy, average score","[1]; 6.25 mg/kg p.o., 240 min",0
same,"Stereotypy, average score","[1]; 12.5 mg/kg i.p., 15 min",1.2
same,"Stereotypy, average score","[1]; 12.5 mg/kg i.p., 30 min",1.3
same,"Stereotypy, average score","[1]; 12.5 mg/kg i.p., 60 min",1.1
same,"Stereotypy, average score","[1]; 12.5 mg/kg i.p., 90 min",1.0
same,"Stereotypy, average score","[1]; 12.5 mg/kg i.p., 120 min",0
same,"Stereotypy, average score","[1]; 12.5 mg/kg i.p., 180 min",0
same,"Stereotypy, average score","[1]; 12.5 mg/kg i.p., 240 min",0
same,"Stereotypy, average score","[1]; 12.5 mg/kg p.o., 15 min",0.4
same,"Stereotypy, average score","[1]; 12.5 mg/kg p.o., 30 min",0.9
same,"Stereotypy, average score","[1]; 12.5 mg/kg p.o., 60 min",1.4
same,"Stereotypy, average score","[1]; 12.5 mg/kg p.o., 90 min",0.4
same,"Stereotypy, average score","[1]; 12.5 mg/kg p.o., 120 min",0
same,"Stereotypy, average score","[1]; 12.5 mg/kg p.o., 180 min",0
same,"Stereotypy, average score","[1]; 12.5 mg/kg p.o., 240 min",0
same,"Stereotypy, average score","[1]; 25.0 mg/kg i.p., 15 min",1.3
same,"Stereotypy, average score","[1]; 25.0 mg/kg i.p., 30 min",1.5
same,"Stereotypy, average score","[1]; 25.0 mg/kg i.p., 60 min",1.8
same,"Stereotypy, average score","[1]; 25.0 mg/kg i.p., 90 min",1.6
same,"Stereotypy, average score","[1]; 25.0 mg/kg i.p., 120 min",1.0
same,"Stereotypy, average score","[1]; 25.0 mg/kg i.p., 180 min",0.8
same,"Stereotypy, average score","[1]; 25.0 mg/kg i.p., 240 min",0.4
same,"Stereotypy, average score","[1]; 25.0 mg/kg p.o., 15 min",0.7
same,"Stereotypy, average score","[1]; 25.0 mg/kg p.o., 30 min",1.1
same,"Stereotypy, average score","[1]; 25.0 mg/kg p.o., 60 min",1.5
same,"Stereotypy, average score","[1]; 25.0 mg/kg p.o., 90 min",0.6
same,"Stereotypy, average score","[1]; 25.0 mg/kg p.o., 120 min",0.6
same,"Stereotypy, average score","[1]; 25.0 mg/kg p.o., 180 min",0.3
same,"Stereotypy, average score","[1]; 25.0 mg/kg p.o., 240 min",0
same,"Stereotypy, average score","[1]; 50.0 mg/kg i.p., 15 min",1.5
same,"Stereotypy, average score","[1]; 50.0 mg/kg i.p., 30 min",2.1
same,"Stereotypy, average score","[1]; 50.0 mg/kg i.p., 60 min",2.7
same,"Stereotypy, average score","[1]; 50.0 mg/kg i.p., 90 min",2.4
same,"Stereotypy, average score","[1]; 50.0 mg/kg i.p., 120 min",2.4
same,"Stereotypy, average score","[1]; 50.0 mg/kg i.p., 180 min",1.7
same,"Stereotypy, average score","[1]; 50.0 mg/kg i.p., 240 min",0.6
same,"Stereotypy, average score","[1]; 50.0 mg/kg p.o., 15 min",1.7
same,"Stereotypy, average score","[1]; 50.0 mg/kg p.o., 30 min",1.9
same,"Stereotypy, average score","[1]; 50.0 mg/kg p.o., 60 min",2.3
same,"Stereotypy, average score","[1]; 50.0 mg/kg p.o., 90 min",2.3
same,"Stereotypy, average score","[1]; 50.0 mg/kg p.o., 120 min",1.9
same,"Stereotypy, average score","[1]; 50.0 mg/kg p.o., 180 min",1.1
same,"Stereotypy, average score","[1]; 50.0 mg/kg p.o., 240 min",0.2
same,Stereotypy (in words),[1],causes stereotypy. This effect develops earlier but it is somewhat weaker than the effect of bromocriptine
same,Inhibition in relation to control group,[4]; 6.25 mg/kg p.o.,17%
same,Inhibition in relation to control group,[4]; 12.5 mg/kg p.o.,50%
same,Inhibition in relation to control group,[4]; 25.0 mg/kg p.o.,74%
same,ED50,"[4]; Mus musculus, po, range (9.5-19.1) printed in the next line",13.5 mg/kg
same,Effect on oxotremorine-induced tremor (in words),[4]; mice,significantly decreases the tremor
same,Increase in motility,[5]; 10 mg/kg i.p.,21%
same,Increase in motility,[5]; 20 mg/kg i.p.,87%
same,Increase in motility,[5]; 25 mg/kg i.p.,106%
same,Increase in motility,[5]; 30 mg/kg i.p.,462%
same,Effect on motility or spontaneous motor activity (in words),[5]; i.p.,increases the motility or spontaneous motor activity of mice and rats in a dose-dependent manner
same,Effect on oxotremorine-induced salivation (in words),[6],does not inhibit the oxotremorine-induced salivation
same,Antagonism of haloperidol-induced decrease in SMA,"[7]; 30 mg/kg, 15 min after haloperidol 0.5 mg/kg i.p.",significantly antagonized
same,Decrease in SMA,[7]; haloperidol 0.5 mg/kg i.p. + compound of Example 1 30 mg/kg i.p. 15 min later,17.1%
"O=C(CCCN1CCC(O)(c2ccc(Cl)cc2)CC1)c1ccc(F)cc1 [Haloperidol, 4-[4-(4-chlorophenyl)-4-hydroxy-1-piperidinyl]-1-(4-fluorophenyl)-1-butanone, reference compound]",Decrease in SMA,"[7]; haloperidol alone, 0.5 mg/kg i.p., relative to controls",62.6%
